This passage reports IC50 results from patent US7425640B2, “Substituted 5-carboxyamide pyrazoles and [1,2,4]triazoles as antiviral agents” (priority 2004, dated 2008).

The target in the assay is HCV RNA-dependent RNA polymerase NS5B (Δ21) (Hepatitis C virus genotype 1b, UniProt P26663). In words: Assay for HCV RNA-dependent RNA polymerase activity (SPA, [3H]-GTP incorporation). The assay is classed as biochemical. To be noted: Δ21 Activity (IC50 μM), 50 nM NS5B (Δ21). In a few lines: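 NS5B (Δ21), 50 nM, was incubated 3 h at room temperature with biotinylated oligoG12/polyC template, 5 μM GTP plus [3H]-GTP, in HEPES pH 7.3 with MgCl2 and NaCl. [3H]-GTP incorporation was read by streptavidin SPA. IC50 came from single experiments across 11 two-fold dilutions (0.05–50 μM).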
Sequence of HCV RNA-dependent RNA polymerase NS5B (Δ21) (P26663 2420-2989, stated change not applied): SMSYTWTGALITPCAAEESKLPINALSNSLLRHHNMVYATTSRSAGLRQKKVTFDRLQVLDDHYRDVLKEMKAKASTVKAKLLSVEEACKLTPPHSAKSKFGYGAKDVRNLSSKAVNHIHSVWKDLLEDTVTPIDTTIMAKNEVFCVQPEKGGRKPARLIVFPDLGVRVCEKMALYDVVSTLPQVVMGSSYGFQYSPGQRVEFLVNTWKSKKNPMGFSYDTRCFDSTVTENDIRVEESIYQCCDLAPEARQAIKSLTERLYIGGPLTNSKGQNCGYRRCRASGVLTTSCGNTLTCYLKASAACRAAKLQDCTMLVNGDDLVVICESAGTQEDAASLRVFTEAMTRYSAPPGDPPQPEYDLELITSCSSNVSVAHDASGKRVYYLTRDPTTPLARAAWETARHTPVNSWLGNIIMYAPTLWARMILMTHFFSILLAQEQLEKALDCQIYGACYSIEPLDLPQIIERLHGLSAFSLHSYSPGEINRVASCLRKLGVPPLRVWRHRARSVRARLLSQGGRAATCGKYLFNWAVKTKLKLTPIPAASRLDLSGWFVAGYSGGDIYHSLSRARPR

For the setting “class symbols”, `CC(C)(O)c1cc(C(=O)N[C@H]2CCCC[C@@H]2OCc2ccccc2)n(CC(=O)N[C@H]2CCCC[C@@H]2OCc2ccccc2)n1` [Compound 190] displayed an IC50 of more than 1 µM.

Under “class symbols”, `O=C(Cn1nc(C(=O)NCCO)cc1C(=O)N[C@H]1CCCC[C@@H]1OCc1ccccc1)N[C@H]1CCCC[C@@H]1OCc1ccccc1` [Compound 191] had an IC50 of more than 1 µM.

For the setting “class symbols”, `O=C(Cn1nc(C(=O)NC2CCN(Cc3ccccc3)CC2)cc1C(=O)N[C@H]1CCCC[C@@H]1OCc1ccccc1)N[C@H]1CCCC[C@@H]1OCc1ccccc1` [Compound 192] showed an IC50 of more than 1 µM.

Where the note is “class symbols”, `CCOC(=O)c1cc(C(=O)N[C@H]2CCCC[C@@H]2OCc2ccccc2)n(CC(=O)Nc2ccc3c(c2)OCO3)n1` [Compound 193] registered an IC50 of more than 1 µM.

Turning to `CCCCC(CC)CNC(=O)c1cc(C(=O)N[C@H]2CCCC[C@@H]2OCc2ccccc2)n(CC(=O)N[C@H]2CCCC[C@@H]2OCc2ccccc2)n1` (some centres unmarked) [Compound 194], the IC50 (class symbols) is more than 1 µM.

As for `CCOC(CCCNC(=O)c1cc(C(=O)N[C@H]2CCCC[C@@H]2OCc2ccccc2)n(CC(=O)NC2CCCC[C@@H]2OCc2ccccc2)n1)OCC` (some centres unmarked) [Compound 195], the IC50 (class symbols) was more than 1 µM.

For the setting “class symbols”, `CC(=O)Nc1cc(C(=O)N[C@H]2CCCC[C@@H]2OCc2ccccc2)n(CC(=O)NC2CCCC[C@@H]2OCc2ccccc2)n1` (some centres unmarked) [Compound 196] showed an IC50 of more than 1 µM.

`CN(C)C(=O)c1cc(C(=O)N[C@H]2CCCC[C@@H]2OCc2ccccc2)n(CC(=O)NC2CCCC[C@@H]2OCc2ccccc2)n1` (some centres unmarked) [Compound 197]: the IC50 (class symbols) was more than 1 µM.

For the setting “class symbols”, `O=C(O)c1cc(C(=O)N[C@H]2CCCC[C@@H]2OCc2ccccc2)n(CC(=O)N2CCC[C@@H]2COCc2ccccc2)n1` [Compound 198] registered an IC50 of more than 1 µM.

Turning to `CCOC(=O)c1cc(C(=O)N[C@H]2CCCC[C@@H]2OCc2ccccc2)n(CC(=O)NC2CCCC[C@@H]2NCc2ccccc2)n1` (some centres unmarked) [Compound 199], under “class symbols”, the IC50 is more than 1 µM.

`CCOC(=O)c1cc(C(=O)N[C@H]2CCCC[C@@H]2OCc2ccccc2)n(CC(=O)Nc2ncccc2Oc2ccccc2)n1` [Compound 200]: the half-inhibitory concentration (IC50) (class symbols) is more than 1 µM.

Take `COc1ccc(NC(=O)c2cc(C(=O)O)nn2CC(=O)N[C@H]2CCCC[C@@H]2OCc2ccccc2)c(OCc2ccccc2)c1` [Compound 201]: under “class symbols”, the IC50 is more than 1 µM.

Take `CCOC(=O)c1cc(C(=O)Nc2cc(C)ccc2OCn2nc(C)cc2C)n(CC(=O)N[C@H]2CCCC[C@@H]2OCc2ccccc2)n1` [Compound 202]: the concentration for half-maximal inhibition (IC50) (class symbols) was more than 1 µM.

As for `O=C(Cn1nc(C(=O)Nc2ccc(-c3ccccc3)cc2)cc1C(=O)N[C@H]1CCCC[C@@H]1OCc1ccccc1)NC1CCCC[C@@H]1OCc1ccccc1` (some centres unmarked) [Compound 203], under “class symbols”, the IC50 was more than 1 µM.

Compound `O=C(Cn1nc(C(=O)NCC(c2ccccc2)c2ccccc2)cc1C(=O)N[C@H]1CCCC[C@@H]1OCc1ccccc1)NC1CCCC[C@@H]1OCc1ccccc1` (some centres unmarked) [Compound 204] had a concentration for half-maximal inhibition (IC50) (class symbols) of more than 1 µM.

For `Nc1cc(C(=O)N[C@H]2CCCC[C@@H]2OCc2ccccc2)n(CC(=O)NC2CCCC[C@@H]2OCc2ccccc2)n1` (some centres unmarked) [Compound 205], the IC50 (class symbols) is more than 1 µM.

Take `CCOC(=O)c1cc(C(=O)N[C@H]2CCCC[C@@H]2OCc2ccccc2)n(CC(=O)Nc2cc(C)ccc2OCC2CCC2)n1` [Compound 206]: the IC50 (class symbols) was more than 1 µM.

Consider `O=C(Cn1nc(C(=O)O)cc1C(=O)NC12CC3CC(CC(C3)C1)C2)NC1CCCC[C@@H]1OCc1ccccc1` (some centres unmarked) [Compound 207], for which the IC50 (class symbols) is more than 1 µM.

For the setting “class symbols”, `Cc1ccc(OCn2nc(C)cc2C)c(NC(=O)c2cc(C(=O)O)nn2CC(=O)N[C@H]2CCCC[C@@H]2OCc2ccccc2)c1` [Compound 208] came in with an IC50 of more than 1 µM.

Where the note is “class symbols”, `Nc1ccccc1Oc1ccccc1CNC(=O)c1cc(C(=O)O)nn1CC(=O)N[C@H]1CCCC[C@@H]1OCc1ccccc1` [Compound 209] came in with an IC50 of more than 1 µM.

For the compound `CCOC(=O)c1cc(C(=O)N(C)[C@H]2CCCC[C@@H]2OCc2ccccc2)n(CC(=O)N(C)C2CCCC[C@@H]2OCc2ccccc2)n1` (some centres unmarked) [Compound 210], the IC50 (class symbols) is more than 1 µM.

Compound `O=C(Cn1nc(C(=O)O)cc1C(=O)N[C@H]1CCCC[C@@H]1OCc1ccccc1)NC1CCCC[C@@H]1N1CCOCC1` (some centres unmarked) [Compound 211] showed an IC50 (class symbols) of more than 1 µM.

With `Cc1ccc(OCc2ccccc2)c(NC(=O)c2cc(-c3nnn[nH]3)nn2CC(=O)N[C@H]2CCCC[C@@H]2OCc2ccccc2)c1` [drawing 240], for the setting “numeric values”, the concentration for half-maximal inhibition (IC50) was determined as 0.02 µM.

With `Cc1ccc(OCC2CCCC2)c(NC(=O)c2cc(C(=O)O)nn2CC(=O)N[C@H]2CCCC[C@@H]2OCc2ccccc2)c1` [drawing 241], for the setting “numeric values”, the IC50 was found to be 0.023 µM.

Compound `O=C(Cn1nc(C(=O)O)cc1C(=O)Nc1cc(Cl)ccc1OCC1CCCCC1)N[C@H]1CCCC[C@@H]1OCc1ccccc1` [drawing 242] returned an IC50 (numeric values) of 0.02 µM.

`Cc1ccc(OCC2CCCCC2)c(NC(=O)c2cc(C(=O)NC#N)nn2CC(=O)N[C@H]2CCCC[C@@H]2OCc2ccccc2)c1` [drawing 243]: under “numeric values”, the midpoint of inhibition, the IC50, lay at 0.037 µM.

Under “numeric values”, `Cc1ccc(OCC2CCCCC2)c(NC(=O)c2cc(C(=O)O)nn2CC(=O)N[C@H]2CCCC[C@@H]2OCc2ccccc2)c1` [drawing 244] returned an IC50 of 0.033 µM.

`N#CNC(=O)c1cc(C(=O)Nc2ccccc2OCc2ccccc2)n(CC(=O)N[C@H]2CCCC[C@@H]2OCc2ccccc2)n1` [drawing 245]: half-maximal inhibition (numeric values) (IC50) required 0.024 µM.

Under “numeric values”, `C[C@@H](NC(=O)c1cc(C(=O)N[C@H]2CCCC[C@@H]2OCc2ccccc2)n(CC(=O)N[C@H]2CCCC[C@@H]2OCc2ccccc2)n1)c1cccc2ccccc12` [drawing 246] registered a half-maximal inhibitory concentration (IC50) of 0.15 µM.

Compound `Cc1ccc(OCc2ccsc2)c(NC(=O)c2cc(C(=O)O)nn2CC(=O)N[C@H]2CCCC[C@@H]2OCc2ccccc2)c1` [drawing 247] displayed an IC50 (numeric values) of 0.032 µM.

For the compound `Cc1ccc(OCC2CCC2)c(NC(=O)c2cc(C(=O)O)nn2CC(=O)N[C@H]2CCCC[C@@H]2OCc2ccccc2)c1` [drawing 248], it took 0.055 µM to reach half-maximal inhibition (numeric values) (IC50).

Under “numeric values”, `O=C(Cn1nc(C(=O)O)cc1C(=O)Nc1ccc(F)cc1OCC1CCCCC1)N[C@H]1CCCC[C@@H]1OCc1ccccc1` [drawing 249] showed an IC50 of 0.035 µM.

Where the note is “numeric values”, `O=C(Cn1nc(NS(=O)(=O)c2ccc(Cl)cc2)cc1C(=O)N[C@H]1CCCC[C@@H]1OCc1ccccc1)N[C@H]1CCCC[C@@H]1OCc1ccccc1` [drawing 250] displayed an IC50 of 0.036 µM.

Compound `O=C(Cn1nc(C(=O)O)cc1C(=O)Nc1cc(Br)ccc1OCC1CCCCC1)N[C@H]1CCCC[C@@H]1OCc1ccccc1` [drawing 251] registered an IC50 (numeric values) of 0.037 µM.

Turning to `O=C(Cn1nc(NS(=O)(=O)c2ccc(Br)cc2)cc1C(=O)N[C@H]1CCCC[C@@H]1OCc1ccccc1)N[C@H]1CCCC[C@@H]1OCc1ccccc1` [drawing 252], under “numeric values”, half-maximal inhibition (IC50) was put at 0.041 µM.

In turn, `O=C(Cn1nc(C(=O)O)cc1C(=O)Nc1cc(C(F)(F)F)ccc1OCc1ccccc1)N[C@H]1CCCC[C@@H]1OCc1ccccc1` [drawing 253] showed a 50% inhibitory concentration (IC50) (numeric values) of 0.041 µM.

As for `N#CNC(=O)c1cc(C(=O)N[C@H]2CCCC[C@@H]2OCc2ccccc2)n(CC(=O)N[C@H]2CCCC[C@@H]2OCc2ccccc2)n1` [drawing 254], where the note is “numeric values”, the IC50 turned out to be 0.042 µM.

In turn, `COc1cccc(NC(=O)c2cc(C(=O)N[C@H]3CCCC[C@@H]3OCc3ccccc3)n(CC(=O)N[C@H]3CCCC[C@@H]3OCc3ccccc3)n2)c1` [drawing 255] returned an IC50 (numeric values) of 0.045 µM.
